Test results from patent publication US20230099344A1, “COMPOUNDS AND METHODS FOR THE TARGETED DEGRADATION OF IRAK-4” (Arvinas Operations, Inc., priority 2021, published 2023).

biological target: T1, IRAK-4 (Homo sapiens, UniProt Q9NWZ3); assay: IRAK-4 ELISA, PBMC degradation; format: cell-based; design: endogenous in cells; host or cells: PBMC; settings: treated overnight
T1 sequence (Q9NWZ3 1-460): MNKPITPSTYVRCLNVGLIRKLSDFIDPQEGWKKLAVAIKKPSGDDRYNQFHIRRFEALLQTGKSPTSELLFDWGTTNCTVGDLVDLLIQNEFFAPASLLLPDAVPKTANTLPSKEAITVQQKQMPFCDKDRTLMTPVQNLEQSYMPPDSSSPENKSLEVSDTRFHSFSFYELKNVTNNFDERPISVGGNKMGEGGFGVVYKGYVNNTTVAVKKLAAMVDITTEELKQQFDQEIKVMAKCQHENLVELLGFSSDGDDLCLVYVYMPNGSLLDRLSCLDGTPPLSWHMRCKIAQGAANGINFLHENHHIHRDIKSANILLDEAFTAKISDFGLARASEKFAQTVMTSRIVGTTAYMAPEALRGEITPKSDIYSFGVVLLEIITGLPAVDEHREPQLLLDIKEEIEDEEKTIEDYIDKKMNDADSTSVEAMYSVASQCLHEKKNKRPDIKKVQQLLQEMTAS
Procedure, shortened: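 Overnight compound treatment, started on the day of plating, of OCI-Ly10 (1×10^6/ml) and PBMC (2×10^6/ml) cultures. Lysates are collected and IRAK-4 content is read by sandwich ELISA.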

Row | SMILES | DC50 [nM] | Dmax [%] | PBMC DC90 | PBMC Dmax
1 | O=C1CCC(N2C(=O)c3ccc(N4CC(F)(CN5CCC(n6cc7cc(NC(=O)c8cnn9ccc(N%10CCOCC%10)nc89)c(C(F)F)cc7n6)CC5)C4)cc3C2=O)C(=O)N1 (stereo not drawn) [Example 409] | 1 to 5 | ≥ 90 | B (B represents a DC90 value ≥10.0 nM and <25.0 nM) | 
2 | O=C1CCC(NC(=O)c2ccc(N3CC(F)(CN4CCC(N5Cc6cc(NC(=O)c7cnn8cccnc78)c(OCC7CC7)cc6C5=O)CC4)C3)cc2F)C(=O)N1 (stereo not drawn) [Example 298] | ≥ 10 | ≥ 90 | D (D represents a DC90 value ≥50 nM) | 
3 | O=C1CCC(N2C(=O)c3ccc(N4CC(N(CC(F)F)C5CCC(n6cc7cc(NC(=O)c8cnn9cccnc89)c(OCC8CC8)cc7n6)CC5)C4)cc3C2=O)C(=O)N1 (stereo not drawn) [Example 326] | 1 to 5 | ≥ 90 | B (B represents a DC90 value ≥10.0 nM and <25.0 nM) | 
4 | CC(C)Oc1cc2nn(C3CCN(CC4(F)CN(c5cc6c(cn5)C(=O)N(C5CCC(=O)NC5=O)C6=O)C4)CC3)cc2cc1NC(=O)c1cnn2cccnc12 (stereo not drawn) [Example 422, N-(2-(1-((1-(2-(2,6-dioxopiperidin-3-yl)-1,3-dioxo-2,3-dihydro-1H-pyrrolo[3,4-c]pyridin-6-yl)-3-fluoroazetidin-3-yl)methyl)piperidin-4-yl)-6-isopropoxy-2H-indazol-5-yl)pyrazolo[1,5-a]pyrimidine-3-carboxamide] | 1 to 5 | 70 to 80 | C (C represents a DC90 value ≥25.0 nM and <50 nM) | 
5 | O=C1CCC(NC(=O)c2ccc(N3CC(F)(CN4CCC(n5cc6cc(NC(=O)c7cnn8cccnc78)c(OCC7CC7)cc6n5)CC4)C3)cc2F)C(=O)N1 (stereo not drawn) [Example 291] | 1 to 5 | ≥ 90 | B (B represents a DC90 value ≥10.0 nM and <25.0 nM) | 
6 | O=C1CCC(N2C(=O)c3ccc(N4CC(F)(CN5CCC(N6Cc7cc(NC(=O)c8cnn9cccnc89)c(OC8CC8)cc7C6=O)CC5)C4)cc3C2=O)C(=O)N1 (stereo not drawn) [Example 85] | 1 to 5 | 80 to 90 | C (C represents a DC90 value ≥25.0 nM and <50 nM) | 
7 | CC(C)Oc1cc2nn([C@H]3CC[C@H](N(C)CC4(F)CN(c5ccc6c(c5)C(=O)N(C5CCC(=O)NC5=O)C6=O)C4)CC3)cc2cc1NC(=O)c1cnn2cccnc12 (stereo partly drawn) [Example 347] | 1 to 5 | 80 to 90 | B (B represents a DC90 value ≥10.0 nM and <25.0 nM) | 
8 | O=C1CCC(N2C(=O)c3cc(F)c(N4CC(CN5CCC(n6cc7cc(NC(=O)c8cnn9cccnc89)c(OCC8CC8)cc7n6)CC5)C4)cc3C2=O)C(=O)N1 (stereo not drawn) [Example 221] | 1 to 5 | < 70 | B (B represents a DC90 value ≥10.0 nM and <25.0 nM) | 
9 | CC(C)Oc1cc2c(cc1NC(=O)c1cnn3cccnc13)CN(C1CCC(N3CCC(c4ccc5c(c4)C(=O)N(C4CCC(=O)NC4=O)C5=O)CC3)CC1)C2=O (stereo not drawn) [Example 25] | 1 to 5 | ≥ 90 | A (A represents a DC90 value <10.0 nM) | 
10 | O=C1CCC(N2C(=O)c3ccc(N4CCC(CN5CCC(n6cc7cc(NC(=O)c8cnn9cccnc89)c(C8CC8)cc7n6)CC5)CC4)cc3C2=O)C(=O)N1 (stereo not drawn) [Example 186] | 1 to 5 | ≥ 90 | A (A represents a DC90 value <10.0 nM) | 
11 | CC(C)Oc1cc2nn(C3CCN(CC4(F)CN(c5cccc6c5C(=O)N(C5CCC(=O)NC5=O)C6=O)C4)CC3)cc2cc1NC(=O)c1cnn2cccnc12 (stereo not drawn) [Example 271, N-(2-(1-((1-(2-(2,6-dioxopiperidin-3-yl)-1,3-dioxoisoindolin-4-yl)-3-fluoroazetidin-3-yl)methyl)piperidin-4-yl)-6-isopropoxy-2H-indazol-5-yl)pyrazolo[1,5-a]pyrimidine-3-carboxamide] | 5 to 10 | 80 to 90 | D (D represents a DC90 value ≥50 nM) | 
12 | COc1cc(N2CC(CN3CCC(N4Cc5cc(NC(=O)c6cnn7cccnc67)c(OC(C)C)nc5C4=O)CC3)C2)cc2c1C(=O)N(C1CCC(=O)NC1=O)C2 (stereo not drawn) [Example 403] | 1 to 5 | ≥ 90 | C (C represents a DC90 value ≥25.0 nM and <50 nM) | 
13 | CC(C)Oc1cc2c(cc1NC(=O)c1cnn3cccnc13)CN(C1CCN(CCN(C)c3ccc4c(c3)C(=O)N(C3CCC(=O)NC3=O)C4=O)CC1)C2=O (stereo not drawn) [Example 75] | 1 to 5 | ≥ 90 | B (B represents a DC90 value ≥10.0 nM and <25.0 nM) | 
14 | CCN(C1CN(c2ccc3c(c2)C(=O)N(C2CCC(=O)NC2=O)C3=O)C1)[C@H]1CC[C@H](n2cc3cc(NC(=O)c4cnn5cccnc45)c(OC(C)C)cc3n2)CC1 (stereo partly drawn) [Example 319] | 1 to 5 | 80 to 90 | A (A represents a DC90 value <10.0 nM) | 
15 | O=C1CCC(N2C(=O)c3ccc(N4CC(F)(CN5CCC(n6cc7cc(NC(=O)c8cnn9cccnc89)c(OC8CCCC8)cc7n6)CC5)C4)cc3C2=O)C(=O)N1 (stereo not drawn) [Example 198] | 5 to 10 | ≥ 90 | B (B represents a DC90 value ≥10.0 nM and <25.0 nM) | 
16 | O=C1CCC(N2C(=O)c3ccc(N4CC(F)(CN5CCC(n6cc7cc(NC(=O)c8cnn9ccc(N%10CCOCC%10)nc89)c(OCC8CC8)cc7n6)CC5)C4)cc3C2=O)C(=O)N1 (stereo not drawn) [Example 233] | 5 to 10 | 80 to 90 | C (C represents a DC90 value ≥25.0 nM and <50 nM) | 

More lines, main results first:

Row | DC50 [nM] | Dmax [%] | PBMC DC90 | SMILES | PBMC Dmax
17 | 1 to 5 | 80 to 90 | A (A represents a DC90 value <10.0 nM) | CC(C)Oc1cc2nn(C[C@@H](F)C3CCN(CC4CN(c5ccc6c(c5)C(=O)N(C5CCC(=O)NC5=O)C6=O)C4)CC3)cc2cc1NC(=O)c1cnn2cccnc12 (stereo partly drawn) [Example 415] | 
18 | < 1 | ≥ 90 | A (A represents a DC90 value <10.0 nM) | Cn1c(=O)n(C2CCC(=O)NC2=O)c2cccc(N3CC(F)(CN4CCC(n5cc6cc(NC(=O)c7cnn8cccnc78)c(OCC7CC7)cc6n5)CC4)C3)c21 (stereo not drawn) [Example 387] | 
19 | < 1 | ≥ 90 | A (A represents a DC90 value <10.0 nM) | CC(C)Oc1cc2nn(C3CCN(CC4(F)CN(c5cccc6c5n(C)c(=O)n6C5CCC(=O)NC5=O)C4)CC3)cc2cc1NC(=O)c1cnn2cccnc12 (stereo not drawn) [Example 386] | 
20 | 1 to 5 | ≥ 90 | D (D represents a DC90 value ≥50 nM) | CC(C)(C1CCN(c2ccc3c(c2)C(=O)N(C2CCC(=O)NC2=O)C3=O)CC1)N1CCC(n2cc3cc(NC(=O)c4cnn5cccnc45)c(OCC4CC4)cc3n2)CC1 (stereo not drawn) [Example 230] | 
21 | < 1 | ≥ 90 | A (A represents a DC90 value <10.0 nM) | CN(C1CN(c2ccc3c(c2)C(=O)N(C2CCC(=O)NC2=O)C3=O)C1)[C@H]1CC[C@H](n2cc3cc(NC(=O)c4cnn5cccnc45)c(C4CC4)cc3n2)CC1 (stereo partly drawn) [Example 343] | 
22 | < 1 | 80 to 90 | A (A represents a DC90 value <10.0 nM) | O=C1CCC(N2C(=O)c3ccc(N4CC(F)(CN[C@H]5CC[C@H](n6cc7cc(NC(=O)c8cnn9cccnc89)c(OCC8CC8)cc7n6)CC5)C4)cc3C2=O)C(=O)N1 (stereo partly drawn) [Example 351] | 
23 | < 1 | ≥ 90 | A (A represents a DC90 value <10.0 nM) | CC(C)Oc1cc2c(cc1NC(=O)c1cnn3cccnc13)CN(CCOCC1CCN(c3ccc4c(c3)C(=O)N(C3CCC(=O)NC3=O)C4=O)CC1)C2=O (stereo not drawn) [Example 90] | 
24 | < 1 | 80 to 90 | A (A represents a DC90 value <10.0 nM) | O=C1CCC(N2C(=O)c3ccc(N4CC(CN5CCC(n6cc7cc(NC(=O)c8cnn9cccnc89)c(OC8CCC8)cc7n6)CC5)C4)cc3C2=O)C(=O)N1 (stereo not drawn) [Example 197] | 
25 | < 1 | 80 to 90 | A (A represents a DC90 value <10.0 nM) | O=C1CCC(N2C(=O)c3ccc(N4CCC(CN5CCC(n6cc7cc(NC(=O)c8cnn9cccnc89)c(OCC(F)F)cc7n6)CC5)CC4)cc3C2=O)C(=O)N1 (stereo not drawn) [Example 148] | 
26 | < 1 | ≥ 90 | A (A represents a DC90 value <10.0 nM) | CC(C)Oc1cc2c(cc1NC(=O)c1cnn3cccnc13)CN(C[C@@H](F)C1CCN(CC3CCN(c4ccc5c(c4)C(=O)N(C4CCC(=O)NC4=O)C5=O)CC3)CC1)C2=O (stereo partly drawn) [Example 18] | 
27 | < 1 | 70 to 80 | D (D represents a DC90 value ≥50 nM) | CN(C1CCC(n2cc3cc(NC(=O)c4cnn5cccnc45)c(OCC4CC4)cc3n2)CC1)C1CCN(c2ccc3c(c2)C(=O)N(C2CCC(=O)NC2=O)C3)CC1 (stereo not drawn) [Example 354] | 
28 | < 1 | ≥ 90 | A (A represents a DC90 value <10.0 nM) | CC(C)Oc1cc2c(cc1NC(=O)c1cnn3cccnc13)CN(C1CCN(C[C@H]3CN(c4ccc5c(c4)C(=O)N(C4CCC(=O)NC4=O)C5=O)CCO3)CC1)C2=O (stereo partly drawn) [Example 79] | 
29 | < 1 |  | A (A represents a DC90 value <10.0 nM) | O=C1CCC(N2Cc3cc(N4CC(F)(CN5CCC(n6cc7cc(NC(=O)c8cnn9cccnc89)c(OC8CCC8)cc7n6)CC5)C4)ccc3C2=O)C(=O)N1 (stereo not drawn) [Example 216] | B (B represents a Dmax value ≥80 and <90)
30 | < 1 | ≥ 90 | A (A represents a DC90 value <10.0 nM) | CN(C1CN(c2ccc3c(c2)CN(C2CCC(=O)NC2=O)C3=O)C1)[C@H]1CC[C@H](n2cc3cc(NC(=O)c4cnn5cccnc45)c(OCC4CC4)cc3c2)CC1 (stereo partly drawn) [Example 324] | 
